According to PMC7465040, “Cytotoxic and Anti-Plasmodial Activities of Stephania dielsiana Y.C. Wu Extracts and the Isolated Compounds” (Molecules, 2020):
Like-named read-outs stand apart in the source and are kept apart here.

Experiments:
HeLa = assay: SRB cell proliferation assay, HeLa; type: cell-based, human; details: for IC50: Homo sapiens, HeLa, 72 h, Table 2A, SRB, read-out: IC50 (μM ± SD) HeLa; for Selectivity index (SI) 184B5 versus HeLa / Selectivity index (SI) MCF10A versus HeLa: Table 2B; for Selectivity index (SI) 184B5 versus HeLa: non-cancer 184B5 vs cancer HeLa; for Selectivity index (SI) MCF10A versus HeLa: non-cancer MCF10A vs cancer HeLa
Description: (§1) In vitro anticancer study: The in vitro anti-proliferative tests were carried out as described previously, using aliquots of the cell lines used therein. Briefly, HeLa, MDA-MB-231 and MDA-MB-468, MCF7, and 184B5 and MCF 10A cell lines were purchased from ATCC. The identity of the cell lines presented in this study were verified by short tandem repeat profiling by Genetica DNA Laboratories (www.celllineauthentication.com) (April 8, 2015). MCF10A was grown in DMEM F12 medium supplemented with 0.02 μg/mL epidermal growth factor, 10% FBS, 10 μg/mL insulin and […] hydrocortisone. MDA-MB-468 were grown in DMEM supplemented with 10% FBS and antibiotics cocktail (100 μg/mL streptomycin, 100 units/mL penicillin and 250 ng/mL amphotericin B). SRB cell proliferation assays were carried out as previously described, with some minor modifications. The concentration range for all tested cell lines were from 100–0.39 μg/mL for extracts and 100–0.39 μM for pure compounds. […] All experiments were carried out at least twice.

[1] = system: Plasmodium falciparum 3D7 and W2 strains; assay: In vitro anti-plasmodial assay, both strains; type: cell-based
Description: (§2) Parasites were grown in A-positive human blood (Etablissement Français du Sang, Marseille, France) under controlled atmospheric conditions that consisted of 10% O2, 5% CO2, and 85% N2 at 37 °C with a humidity of 95%.
(§3) In vitro anti-plasmodial assay: The two P. falciparum strains 3D7 and W2 were synchronized twice with sorbitol before use. The clonality of these strains was verified both in our laboratory and in an independent laboratory from the Worldwide Anti-malarial Resistance Network (WWARN) by PCR genotyping of the polymorphic genetic markers msp1 and msp2 and microsatellite loci. The compounds were re-suspended in methanol or DMSO 5% (v/v) and then diluted in methanol to obtain final concentrations ranging from 0.008 to 500 μg/mL (final concentration of 0.5% of methanol or DMSO). […] The plates were incubated for 72 h at 37 °C in controlled atmospheric conditions 5% CO2, 10% O2, and […]. After thawing the plates, haemolysed cultures were homogenized by vortexing the plates. Both the success of the drug susceptibility assay and the appropriate volume of haemolysed culture to use for each assay were determined for each clinical isolate during a preliminary HRP2 ELISA. Both the pre-test and subsequent ELISA assays were performed using a commercial kit (Malaria Ag Celisa, ref KM2159, Cellabs PTY LTD, Brookvale, Australia) according to the manufacturer’s recommendation. The optical density (OD) of each sample was measured with a spectrophotometer (Safire 2, Tecan, Lyon, France). […] The anti-plasmodial in vitro assay was performed five times for each product. The IC50 values represented the mean value calculated from five experiments. According to Hout, a selectivity index (SI) was based on the ratio between anti-parasitic and cytotoxic activities. In the case of our study, a SI was calculated between non-tumorigenic cell line 184B5 and parasites 3D7 or W2 and/or MCF10A and these two parasites.

MCF7 = assay: SRB cell proliferation assay, MCF7; type: cell-based, human; details: for IC50: Homo sapiens, MCF7, Table 2A, SRB, 72 h, read-out: IC50 (μM ± SD) MCF7; for Selectivity index (SI) 184B5 versus MCF7 / Selectivity index (SI) MCF10A versus MCF7: Table 2B; for Selectivity index (SI) 184B5 versus MCF7: non-cancer 184B5 vs cancer MCF7; for Selectivity index (SI) MCF10A versus MCF7: non-cancer MCF10A vs cancer MCF7
Description: as §1

[2] = system: chloroquine-susceptible 3D7 P. falciparum strain; assay: In vitro anti-plasmodial assay (HRP2 ELISA), 3D7; type: cell-based, Plasmodium falciparum; details: for IC50: 72 h, HRP2 ELISA, mean of five experiments, read-out: IC50 (μM ± SD) 3D7; for SI 3D7 184B5 / SI 3D7 MCF10A: Table 3; for SI 3D7 184B5: selectivity index between 184B5 and parasites 3D7; for SI 3D7 MCF10A: selectivity index between MCF10A and parasites 3D7; for Selective index SI on 3D7 strain: vs 184B5 and MCF10A
Description: as §2, §3

MCF 10A = assay: SRB cell proliferation assay, MCF10A non-cancer cells; type: cell-based; details: Homo sapiens, read-out: IC50 (μM ± SD) MCF 10A
Description: as §1

[3] = system: chloroquine-resistant W2 P. falciparum strain; assay: In vitro anti-plasmodial assay (HRP2 ELISA), W2; type: cell-based, Plasmodium falciparum; details: for IC50: 72 h, HRP2 ELISA, mean of five experiments, read-out: IC50 (μM ± SD) W2; for SI W2 184B5 / SI W2 MCF10A: Table 3; for SI W2 184B5: selectivity index between 184B5 and parasites W2; for SI W2 MCF10A: selectivity index between MCF10A and parasites W2
Description: as §2, §3

MDA-MB-231 = assay: SRB cell proliferation assay, MDA-MB-231; type: cell-based, human; details: for IC50: Homo sapiens, MDA-MB-231, Table 2A, SRB, 72 h, read-out: IC50 (μM ± SD) MDA-MB-231; for Selectivity index (SI) 184B5 versus MDA-MB-231 / Selectivity index (SI) MCF10A versus MDA-MB-231: Table 2B; for Selectivity index (SI) 184B5 versus MDA-MB-231: non-cancer 184B5 vs cancer MDA-MB-231; for Selectivity index (SI) MCF10A versus MDA-MB-231: non-cancer MCF10A vs cancer MDA-MB-231
Description: as §1

MDA-MB-468 = assay: SRB cell proliferation assay, MDA-MB-468; type: cell-based, human; details: for IC50: Homo sapiens, MDA-MB-468, Table 2A, SRB, 72 h, read-out: IC50 (μM ± SD) MDA-MB-468; for Selectivity index (SI) 184B5 versus MDA-MB-468 / Selectivity index (SI) MCF10A versus MDA-MB-468: Table 2B; for Selectivity index (SI) 184B5 versus MDA-MB-468: non-cancer 184B5 vs cancer MDA-MB-468; for Selectivity index (SI) MCF10A versus MDA-MB-468: non-cancer MCF10A vs cancer MDA-MB-468
Description: as §1

184B5 = assay: SRB cell proliferation assay, 184B5 non-cancer cells; type: cell-based, human; details: Homo sapiens, 184B5, read-out: IC50 (μM ± SD) 184B5
Description: as §1

[4] = system: HeLa, MDA-MB231, MDA-MB-468, MCF7, 184B5 and MCF10A cell lines; assay: SRB cell proliferation assay, whole panel of cell lines; type: cell-based, human; details: for IC50: Homo sapiens, cancer and non-cancer cell lines, read-out: IC50 values, range over the cell lines examined
Description: as §1

[5] = Plasmodium falciparum, 3D7, 72 h
[6] = Plasmodium falciparum, W2, 72 h

## COc1ccc2c(c1OC)-c1c3c(cc4c1C(C2)N(C)CC4)OCO3 (centres unmarked) [O-methylbulbocapine 5, O-methylbulbocapnine]
HeLa
  IC50: 70.4 ± 11.4 µM
  Selectivity index (SI) 184B5 versus HeLa: 1.04
  Selectivity index (SI) MCF10A versus HeLa: 0.85
[1]
  Anti-plasmodial activity against both 3D7 and W2 (in words): strong activity
MCF7
  IC50: 39.4 ± 6.2 µM
  Selectivity index (SI) 184B5 versus MCF7: 1.86
  Selectivity index (SI) MCF10A versus MCF7: 1.51
[2]; [5]
  IC50: 2.81 ± 0.4 µM
[2]
  SI 3D7 184B5: 26.07
  SI 3D7 MCF10A: 21.16
  Selective index SI on 3D7 strain: > 20
MCF 10A; Table 2A, SRB, 72 h
  IC50: 59.5 ± 1.9 µM
MCF 10A; Table 3, non-cancer cell line
  IC50: 59.5 ± 1.9 µM
[3]; [6]
  IC50: 5.71 ± 0.62 µM
[3]
  SI W2 184B5: 12.83
  SI W2 MCF10A: 10.42
MDA-MB-231
  IC50: 56.6 ± 9.08 µM
  Selectivity index (SI) 184B5 versus MDA-MB-231: 1.29
  Selectivity index (SI) MCF10A versus MDA-MB-231: 1.05
MDA-MB-468
  IC50: 48.1 ± 1.69 µM
  Selectivity index (SI) 184B5 versus MDA-MB-468: 1.52
  Selectivity index (SI) MCF10A versus MDA-MB-468: 1.24
184B5; Table 2A, SRB, 72 h
  IC50: 73.26 ± 0.47 µM
184B5; Table 3, non-cancer cell line
  IC50: 73.26 ± 0.47 µM
[4]
  IC50: 39 to 73 µM

## COc1cc2c(cc1OC)-c1cc3ccc(OC)c(OC)c3c[n+]1CC2 [Palmatine chloride 6, palmatine]
HeLa
  IC50: > 100 µM
[1]
  Anti-plasmodial activity against both 3D7 and W2 (in words): strong activity
MCF7
  IC50: > 50 µM
[2]; [5]
  IC50: 1.25 ± 0.28 µM
[2]
  Selective index SI on 3D7 strain: > 20
MCF 10A; Table 2A, SRB, 72 h
  IC50: > 50 µM
MCF 10A; Table 3, non-cancer cell line
  IC50: > 50 µM
[3]; [6]
  IC50: 3.19 ± 0.64 µM
[3]
  SI W2 184B5: >15.67
  SI W2 MCF10A: >15.67
MDA-MB-231
  IC50: > 50 µM
MDA-MB-468
  IC50: > 50 µM
184B5; Table 2A, SRB, 72 h
  IC50: > 50 µM
184B5; Table 3, non-cancer cell line
  IC50: > 50 µM
[4]
  Anti-proliferative activity (in words): did not show any effect

## COc1cc2c(cc1OC)[C@@H]1Cc3ccc(OC)c(OC)c3CN1CC2 [Tetrahydropalmatine 7, tetrahydropalmatine]
HeLa
  IC50: > 50 µM
[1]
  Anti-plasmodial activity against both 3D7 and W2 (in words): not active
MCF7
  IC50: > 50 µM
[2]
  IC50: 276 ± 14.4 µM
  SI 3D7 184B5: >0.18
  SI 3D7 MCF10A: >0.18
MCF 10A; Table 2A, SRB, 72 h
  IC50: > 50 µM
MCF 10A; Table 3, non-cancer cell line
  IC50: > 50 µM
[3]
  IC50: 226 ± 19.8 µM
  SI W2 184B5: >0.22
  SI W2 MCF10A: >0.22
[3]; [6]
  IC50: 216 to 226 µM
MDA-MB-231
  IC50: > 50 µM
MDA-MB-468
  IC50: > 50 µM
184B5; Table 2A, SRB, 72 h
  IC50: > 50 µM
184B5; Table 3, non-cancer cell line
  IC50: > 50 µM
[4]
  Anti-proliferative activity (in words): did not show any effect

## COc1cccc2c1C(=O)c1c3c-2c2c(cc3cc[n+]1C)OCO2 [Thailandine 2, thailandine]
HeLa
  IC50: 4.1 ± 0.4 µM
  Selectivity index (SI) 184B5 versus HeLa: 0.73
  Selectivity index (SI) MCF10A versus HeLa: 1.20
[1]
  Anti-plasmodial activity against both 3D7 and W2 (in words): strong activity
[1]; 184B5, MCF10A vs 3D7, W2
  Selectivity index (SI) between cells and parasites: > 12
MCF7
  IC50: 1.99 ± 1.36 µM
  Selectivity index (SI) 184B5 versus MCF7: 1.50
  Selectivity index (SI) MCF10A versus MCF7: 2.50
[2]
  SI against P. falciparum (3D7 vs. 184B5): 12.6 fold
  IC50: 0.24 ± 0.04 µM
  SI 3D7 184B5: 12.58
  SI 3D7 MCF10A: 20.86
[2]; [5]
  IC50: 0.22 µM
MCF 10A; Table 2A, SRB, 72 h
  IC50: 5.01 ± 0.15 µM
MCF 10A; Table 3, non-cancer cell line
  IC50: 5.01 ± 0.15 µM
[3]
  SI against P. falciparum (W2 vs. MCF10A): 22.8 fold
  IC50: 0.22 ± 0.02 µM
  SI W2 184B5: 13.73
  SI W2 MCF10A: 22.77
[3]; [6]
  IC50: 0.24 µM
MDA-MB-231
  IC50: 7.11 ± 0.07 µM
  Selectivity index (SI) 184B5 versus MDA-MB-231: 0.42
  Selectivity index (SI) MCF10A versus MDA-MB-231: 0.70
MDA-MB-468
  IC50: 0.78 ± 0.12 µM
  Selectivity index (SI) 184B5 versus MDA-MB-468: 3.90
  Selectivity index (SI) MCF10A versus MDA-MB-468: 6.40
184B5; Table 2A, SRB, 72 h
  IC50: 3.02 ± 0.1 µM
184B5; Table 3, non-cancer cell line
  IC50: 3.02 ± 0.1 µM
[4]
  IC50: 0.78 to 7.11 µM
